Test results published in ChEMBL document CHEMBL5532640, “Medicinal chemistry strategies targeting NLRP3 inflammasome pathway: A recent update from 2019 to mid-2023” (Eur J Med Chem, 2023).
Values after ≈ are worked out from the molar mass of the structure shown.

How the values were obtained:
[1] = molecular target: T1, NACHT, LRR and PYD domains-containing protein 3 (Homo sapiens, UniProt Q96P20); experiment: Inhibition of NLRP3 in human THP-1 cells assessed as reduction in LPS/ATP induced IL-1beta release at 10 uM preincubated with LPS for 4 hrs followed by compound addition for 1 hr prior to ATP stimulation for 1.5 hrs by ELISA relative to control; format: cell-based; conditions: time 2.5 hrs
T1 sequence (Q96P20 whole entry, the tested form may be a part): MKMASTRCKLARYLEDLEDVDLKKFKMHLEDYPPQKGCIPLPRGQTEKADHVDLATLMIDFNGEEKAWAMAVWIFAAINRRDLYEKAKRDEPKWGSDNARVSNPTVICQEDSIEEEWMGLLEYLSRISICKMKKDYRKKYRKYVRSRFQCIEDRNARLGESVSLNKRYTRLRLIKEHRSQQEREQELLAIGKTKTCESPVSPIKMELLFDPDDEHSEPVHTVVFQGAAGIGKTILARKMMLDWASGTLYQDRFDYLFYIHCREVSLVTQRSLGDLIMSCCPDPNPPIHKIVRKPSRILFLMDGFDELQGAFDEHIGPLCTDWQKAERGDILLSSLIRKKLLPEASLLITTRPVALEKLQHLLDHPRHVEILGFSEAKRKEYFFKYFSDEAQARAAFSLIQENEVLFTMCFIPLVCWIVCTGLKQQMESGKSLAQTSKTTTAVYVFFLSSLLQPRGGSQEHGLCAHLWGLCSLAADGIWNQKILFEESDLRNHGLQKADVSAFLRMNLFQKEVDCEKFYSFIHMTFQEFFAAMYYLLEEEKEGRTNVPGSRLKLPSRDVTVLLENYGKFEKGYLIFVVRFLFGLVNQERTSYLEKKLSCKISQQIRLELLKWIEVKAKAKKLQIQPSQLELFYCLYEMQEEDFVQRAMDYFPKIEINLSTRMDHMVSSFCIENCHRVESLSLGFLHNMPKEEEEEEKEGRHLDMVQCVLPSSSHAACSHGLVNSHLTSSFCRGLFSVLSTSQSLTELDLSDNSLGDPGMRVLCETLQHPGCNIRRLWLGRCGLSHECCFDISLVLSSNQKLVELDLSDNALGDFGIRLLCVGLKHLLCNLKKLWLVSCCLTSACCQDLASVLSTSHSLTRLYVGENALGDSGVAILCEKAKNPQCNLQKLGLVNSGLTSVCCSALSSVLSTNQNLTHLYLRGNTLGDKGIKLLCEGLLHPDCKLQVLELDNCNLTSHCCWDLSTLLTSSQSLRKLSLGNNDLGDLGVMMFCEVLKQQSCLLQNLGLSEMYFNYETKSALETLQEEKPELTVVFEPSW

[2] = Inhibition of LPS/nigericin induced LDH release in mouse J774.A1 cells; format: functional, cell-based
[3] = molecular target: T2, NACHT, LRR and PYD domains-containing protein 3 (Mus musculus, UniProt Q8R4B8); experiment: Inhibition of NLRP3 inflammasome in mouse BMDMs assessed as reduction in IL-1beta activity preincubated with LPS for 4 hrs followed by compound addition for 30 mins prior to nigericin addition and measured after 1 hr by ELISA; format: cell-based, BMDM
T2 sequence (Q8R4B8 whole entry, the tested form may be a part): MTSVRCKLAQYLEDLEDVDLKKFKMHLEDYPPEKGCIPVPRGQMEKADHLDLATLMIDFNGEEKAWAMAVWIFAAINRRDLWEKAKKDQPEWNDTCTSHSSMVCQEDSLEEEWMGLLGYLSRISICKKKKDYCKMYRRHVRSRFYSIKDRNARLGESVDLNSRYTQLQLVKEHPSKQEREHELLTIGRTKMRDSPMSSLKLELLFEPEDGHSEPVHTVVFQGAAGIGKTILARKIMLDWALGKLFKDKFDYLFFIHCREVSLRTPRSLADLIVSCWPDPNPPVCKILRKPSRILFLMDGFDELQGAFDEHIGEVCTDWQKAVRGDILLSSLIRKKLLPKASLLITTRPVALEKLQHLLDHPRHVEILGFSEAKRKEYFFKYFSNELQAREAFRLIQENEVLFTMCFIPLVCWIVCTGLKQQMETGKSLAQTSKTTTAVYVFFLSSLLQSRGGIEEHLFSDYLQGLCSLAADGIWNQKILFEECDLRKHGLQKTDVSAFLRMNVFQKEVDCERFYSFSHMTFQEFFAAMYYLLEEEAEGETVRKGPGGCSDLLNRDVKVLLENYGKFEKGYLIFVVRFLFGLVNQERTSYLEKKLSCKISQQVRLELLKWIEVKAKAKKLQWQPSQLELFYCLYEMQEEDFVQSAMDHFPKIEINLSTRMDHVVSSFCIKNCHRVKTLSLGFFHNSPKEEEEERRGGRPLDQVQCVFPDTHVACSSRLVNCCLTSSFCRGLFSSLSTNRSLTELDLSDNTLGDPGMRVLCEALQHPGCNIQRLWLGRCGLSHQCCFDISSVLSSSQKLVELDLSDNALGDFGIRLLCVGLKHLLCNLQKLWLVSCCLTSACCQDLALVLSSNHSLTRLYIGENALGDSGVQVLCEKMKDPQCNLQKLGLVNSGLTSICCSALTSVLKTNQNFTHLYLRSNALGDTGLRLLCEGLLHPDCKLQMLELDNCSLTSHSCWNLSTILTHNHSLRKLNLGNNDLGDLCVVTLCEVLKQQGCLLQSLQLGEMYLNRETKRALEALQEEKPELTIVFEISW

[4] = molecular target: T1, NACHT, LRR and PYD domains-containing protein 3; experiment: Inhibition of NLRP3 in LPS/ATP induced human THP1 cells; format: cell-based, THP-1
[5] = Cytotoxicity against mouse J774.A1 cells; format: toxicity, cell-based; conditions: read-out: TC50 (the source's name)
[6] = molecular target: T2, NACHT, LRR and PYD domains-containing protein 3; experiment: Inhibition of NLRP3 in mouse BMDMs assessed as reduction in LPS/ATP-induced IL-1beta release preincubated for 30 mins in presence of LPS followed by ATP addition and measured after 1 hr by ELISA; format: cell-based, BMDM
[7] = molecular target: T2, NACHT, LRR and PYD domains-containing protein 3; experiment: Covalent inhibition of NLRP3 in mouse BMDMs assessed as reduction in LPS/nigericin induced IL-1beta secretion pretreated with LPS for 3 hrs followed by compound addition for 30 mins prior to nigericin addition and measured after 30 mins by ELISA; format: cell-based, BMDM
[8] = Solubility of the compound at pH 1.5; format: physicochemical; conditions: buffer
[9] = molecular target: T2, NACHT, LRR and PYD domains-containing protein 3; experiment: Inhibition of NLRP3 inflammasome in mouse J774.A1 cells assessed as decrease in LPS/nigericin induced IL-1beta level preincubated with LPS for 4 hrs followed by compound addition for 1 hr in presence nigericin by ELISA; format: cell-based
[10] = Half life in C57BL/6 mouse at 20 mg/kg, po; format: ADME, organism-based; conditions: in vivo
[11] = Stability in mouse liver microsomes assessed as compound remaining after 60 mins; format: ADME, Microsome; conditions: read-out: Stability
[12] = Stability in human liver microsomes assessed as compound remaining after 60 mins; format: ADME, Microsome; conditions: read-out: Stability
[13] = Inhibition of porcine whole blood NLRP3 assessed as reduction in LPS/ATP induced IL-1beta secretion preincubated for 3 hrs in presence of LPS followed by ATP addition and measured after 1 hr by immunoassay; conditions: Sus scrofa
[14] = molecular target: T2, NACHT, LRR and PYD domains-containing protein 3; experiment: Inhibition of NLRP3 in LPS/ATP induced mouse J774.A1 cells; format: cell-based
[15] = molecular target: T2, NACHT, LRR and PYD domains-containing protein 3; experiment: Inhibition of NLRP3 in mouse J774.A1 cells assessed as reduction in LPS/ATP induced IL-1beta secretion; format: cell-based
[16] = molecular target: T1, NACHT, LRR and PYD domains-containing protein 3; experiment: Inhibition of NLRP3 inflammasome in human MDM cells assessed as reduction in LPS/nigericin induced IL-1beta secretion […] prior to nigericin addition and measured after 5 hrs by ELISA; format: cell-based
[17] = Cmax in human at 1000 mg per day, po administered for 8 consecutive days; format: ADME, organism-based; conditions: in vivo

For `O=C(CCc1ccccc1Cl)NCCn1c(=O)[nH]c2ccccc21`, which inhibition [1] is on record?
The inhibition was 20.3%.

Which IC50 [2] does the source give for `CC(C)C1=CC2=C[C@H](O)[C@H]3C(C)(C)CCC[C@]3(C)[C@@]2(O)C(=O)C1=O` here?
Its IC50 is 230 nM.

For `COc1c(O)cc2c(c1C)C(=O)C=C1[C@@]2(C)CC[C@@]2(C)[C@@H]3C[C@@H](C)C(=O)[C@@H](O)[C@]3(C)CC[C@]12C`, which IC50 [3] is on record?
Its IC50 is 1150 nM.

For `CC1=C(O)C(=O)C=C2C1=CC=C1[C@@]2(C)[C@@H](Br)C[C@@]2(C)[C@@H]3C[C@@H](C)C(=O)C[C@]3(C)CC[C@]12C`, which IC50 [3] is on record?
Its IC50 is 190 nM.

Which IC50 [4] does the source give for `C=C1C(=O)[C@]23[C@H](O)[C@H]1CC[C@H]2[C@@]12CO[C@]3(O)[C@@H](O)[C@@H]1C(C)(C)CC[C@@H]2O` [ORIDONIN] here?
Its IC50 is 5180 nM.

With `Cc1ccc(S(=O)(=O)/C=C/C#N)cc1` as the compound, how does the CC50 [5] read?
The CC50 was 6400 nM.

Which IC50 [2] does the source give for `CCO[C@H]1C[C@H]2C(C)(C)CCC[C@]2(C)C2=C1C=C(C(C)C)C(=O)C2=O` here?
Its IC50 is 230 nM.

For `O=C(CCc1ccccc1Cl)N1CCC(n2c(=O)[nH]c3ccccc32)CC1`, which inhibition [1] is on record?
The inhibition was 10.3%.

Which IC50 [6] does the source give for `CC(C)n1ccc(S(=O)(=O)NC(=O)Nc2c3c(cc4c2CCC4)CCC3)n1` [INZOMELID] here?
Its IC50 is 16 nM.

Which inhibition [1] does the source give for `C=C(Cc1ccccc1Cl)C(=O)N1CCC(n2c(=O)[nH]c3ccccc32)CC1` here?
Its inhibition is 14.4%.

For `N#C/N=C(\NCc1ccccc1)NC1CCN(C(=O)CCc2ccccc2Cl)CC1`, which inhibition [1] is on record?
The inhibition was 25.2%.

Which IC50 [7] does the source give for `O=C(CBr)NCc1ccc(C(F)(F)F)cc1` here?
Its IC50 is 183 nM.

For `CN[C@@H]1COc2c(S(=O)(=O)NC(=O)Nc3c4c(cc5c3CCC5)CCC4)cnn2C1`, which solubility [8] is on record?
Its solubility is 5760 µg/mL (≈ 13.3 mM).

Which IC50 [2] does the source give for `CCO[C@@H]1C[C@H]2C(C)(C)CCC[C@]2(C)C2=C1C=C(C(C)C)C(=O)C2=O` here?
Its IC50 is 230 nM.

For `CC(=O)O[C@H]1[C@@H](OC(C)=O)[C@@]2(C)C3=CC[C@@H](C4=CC(=O)O[C@@H]4O)[C@]3(C)CC[C@@H]2[C@@]2(C)C=CC(=O)OC(C)(C)[C@H]12`, which IC50 [9] is on record?
The IC50 was 3200 nM.

With `CC(C)(O)c1coc(S(=O)(=O)NC(=O)Nc2c3c(cc4c2CCC4)CCC3)c1` as the compound, how does the half-life [10] read?
The half-life was 3.27 h.

What about the remaining at 1 h [11] of the same compound?
The remaining at 1 h was over 70%.

And the remaining at 1 h [12]?
The remaining at 1 h was over 70%.

Which inhibition [1] does the source give for `O=C(O)Cn1c(=O)n(C(=O)CCc2ccccc2Cl)c2ccccc21` here?
The inhibition was 21.1%.

With `CC1(C)OC(=O)C=C[C@]2(C)[C@H]3CC[C@@]4(C)[C@H](C5=CC(=O)NC5=O)C[C@H]5O[C@]54[C@]3(C)OC(=O)C[C@@H]12` as the compound, how does the IC50 [9] read?
Its IC50 is 3200 nM.

For `CO[C@@H]1C2=C(C(=O)C(=O)C(C(C)C)=C2)[C@@]2(C)CCCC(C)(C)[C@@H]2[C@H]1O`, which IC50 [2] is on record?
Its IC50 is 230 nM.

With `CC(=O)O[C@@H]1C[C@H]2C(C)(C)OC(=O)C=C[C@]2(C)[C@H]2CC[C@]3(C)C(=CC[C@H]3C3=CC(=O)O[C@@H]3O)[C@@]21C` as the compound, how does the IC50 [9] read?
Its IC50 is 3200 nM.

For `CCN1CCC(S(=O)(=O)NC(=O)Nc2c3c(cc4c2CCC4)CCC3)CC1` [SELNOFLAST], which IC50 [13] is on record?
The IC50 was 350 nM.

Which IC50 [2] does the source give for `CC1(C)CCC[C@@]2(C)C1=C(O)C(=O)c1cc(C(C)(C)O)c(O)c(O)c12` here?
The IC50 was 230 nM.

Which IC50 [14] does the source give for `NS(=O)(=O)c1ccc(CCNC(=O)/C=C/S(=O)(=O)c2ccccc2Cl)cc1` here?
Its IC50 is 1830 nM.

And the CC50 [5]?
Its CC50 is 27500 nM.

For `O=C(/C=C/S(=O)(=O)c1ccccc1Cl)OCCc1ccccc1`, which IC50 [14] is on record?
Its IC50 is 920 nM.

And the CC50 [5]?
Its CC50 is 41800 nM.

With `CC(=O)O[C@H]1C=C2C=C(C(C)C)C(=O)C(O)=C2[C@@]2(C)CCCC(C)(C)[C@H]12` as the compound, how does the IC50 [2] read?
The IC50 was 230 nM.

Which IC50 [9] does the source give for `CC1(C)OC(=O)C=C[C@@]2(C)[C@H]1CC(=O)[C@@]1(C)C3=CC[C@@H](C4=CC(=O)O[C@@H]4O)[C@]3(C)CC[C@@H]12` here?
The IC50 was 3200 nM.

For `CCOCCOc1ccc(/C=C/c2cc(OC)cc(OC)c2/C=C/[N+](=O)[O-])cc1`, which IC50 [15] is on record?
The IC50 was 2410 nM.

For `CS(=O)(=O)CCC#N`, which IC50 [16] is on record?
The IC50 was 1000 nM.

What about the Cmax [17] of the same compound?
The Cmax was 41400 ng/mL.
